Assay results from patent publication US9408393B2, “Bismuth-thiols as antiseptics for agricultural, industrial and other uses” (Microbion Corporation, priority 2010, dated 2016).

How the values were obtained:
resistant E. coli = assay: MIC in Mueller-Hinton II broth, antibiotic + BisEDT; format: cell-based, Escherichia coli
From the text: Chloramphenicol and ampicillin resistant Escherichia coli were made sensitive to these drugs by the addition of subMIC BisEDT (Table 24).
Tetracycline resistant Escherichia coli were made sensitive to doxycycline by the addition of subMIC BisEDT (Table 25).

Klebsiella pneumoniae = assay: Single-point BisEDT-antibiotic combination FICI; format: cell-based; conditions: KP 1231
Acinetobacter baumanii = assay: Single-point BisEDT-antibiotic combination FICI; format: cell-based; conditions: Abau 2594
Escherichia coli = assay: Single-point BisEDT-antibiotic combination FICI; format: cell-based; conditions: EC 2232
S. aureus = assay: Broth dilution MIC/MBC, BT-antibiotic combinations; format: cell-based, Staphylococcus aureus; conditions: Staphylococcus aureus, Tobramycin resistant strains table, S. aureus SA-29213
Method: Materials & Methods. Susceptibility studies were performed by broth dilution in 96-well tissue culture plates (Nalge Nunc International, Denmark) in accordance with NCCLS protocols (National Committee for Clinical Laboratory Standards. (1997). Methods for Dilution Antimicrobial Susceptibility Tests for Bacteria that Grow Aerobically: Approved Standard M7-A2 and Informational Supplement M100-S10. NCCLS, Wayne, Pa., USA).
Briefly, overnight bacterial cultures were used to prepare 0.5 McFarland standard suspensions, which were further diluted 1:50 (˜2×10^6 cfu/mL) in cation-adjusted Mueller-Hinton broth medium (BBL, Cockeysville, Md., USA). BTs (prepared as described above) and antibiotics were added at incremental concentrations, keeping the final volume constant at 0.2 mL. Cultures were incubated for 24 h at 37° C. and turbidity was assessed by absorption at 630 nm using an ELISA plate reader (Biotek Instruments, Winooski, Vt., USA) according to the manufacturer's recommendations. […] Viable bacterial counts (cfu/mL) were determined by standard plating on nutrient agar.
The checkerboard method was used to assess the activity of antimicrobial combinations. The fractional inhibitory concentration index (FICI) and the fractional bactericidal concentration index (FBCI) were calculated, according to Eliopoulos et al. (Eliopoulos and Moellering, (1996) Antimicrobial combinations. In Antibiotics in Laboratory Medicine (Lorian, V., Ed.), pp. 330-96, Williams and Wilkins, Baltimore, Md., USA). Synergy was defined as an FICI or FBCI index of […], no interaction at >0.5-4 and antagonism at >4 (Odds, F C (2003) Synergy, antagonism, and what the chequerboard puts between them. Journal of Antimicrobial Chemotherapy 52:1). Synergy was also defined conventionally as ≧4-fold decrease in antibiotic concentration.

Pseudomonas aeruginosa = assay: Single-point BisEDT-antibiotic combination FICI; format: cell-based; conditions: PA 1380
Burkholderia cepacia = assay: Single-point BisEDT-antibiotic combination FICI; format: cell-based; conditions: Bcep 1756
Enterococcus faecalis = assay: Single-point BisEDT-antibiotic combination FICI; format: cell-based; conditions: E Fc 3121
Bukholderia multivorans = assay: Single-point BisEDT-antibiotic combination FICI; format: cell-based; conditions: Bmult 5665
[1] = test system: B. cepacia (B. multivorans, B. cenocepacia); assay: MIC and FIC index, tobramycin + BisEDT; format: cell-based, Burkholderia cepacia; conditions: 0.4 μg/ml BisEDT
[2] = test system: Streptococcus pneumoniae (SP, PRSP); assay: Single-point BisEDT-antibiotic combination FICI; conditions: PRSP 5348
[3] = test system: Staphylococcus aureus (SA, MRSA); assay: Single-point BisEDT-antibiotic combination FICI; format: cell-based
[4] = tobramycin-resistant Burkholderia cepacia

## CC1(C)S[C@@H]2[C@H](NC(=O)[C@H](N)c3ccccc3)C(=O)N2[C@H]1C(=O)O [AM, ampicillin]
Resistant E. coli; Escherichia coli, read-out: Drug + BE MIC, Chloramphenicol/Ampicillin resistant E. coli, BE 0.33 μg/ml
  MIC: 49 µg/mL

## C[C@H]1c2cccc(O)c2C(=O)C2=C(O)[C@]3(O)C(=O)C(C(N)=O)=C(O)[C@@H](N(C)C)[C@@H]3[C@@H](O)[C@@H]21 [DOX, doxycycline]
Resistant E. coli; E. coli TET M and TET D strains
  FIC, doxycycline + subMIC BisEDT: 0.5

## NC[C@H]1O[C@H](O[C@H]2[C@H](O)[C@@H](O[C@H]3O[C@H](CO)[C@@H](O)[C@H](N)[C@H]3O)[C@H](N)C[C@@H]2N)[C@H](N)C[C@@H]1O [Tobramycin]
Klebsiella pneumoniae
  FICI, single-point BisEDT-antibiotic combination: 0.87
Acinetobacter baumanii
  FICI, single-point BisEDT-antibiotic combination: 1.12
Escherichia coli
  FICI, single-point BisEDT-antibiotic combination: 0.96
S. aureus; read-out: NN MBC
  MBC: 2 µg/mL
S. aureus; read-out: NN MIC
  MIC: 2 µg/mL
Pseudomonas aeruginosa
  FICI, single-point BisEDT-antibiotic combination: 1.29
Burkholderia cepacia
  FICI, single-point BisEDT-antibiotic combination: 0.91
Enterococcus faecalis
  FICI, single-point BisEDT-antibiotic combination: 0.47
Bukholderia multivorans
  FICI, single-point BisEDT-antibiotic combination: 0.67
[1]
  Isolates rendered tobramycin sensitive: seven of 10
[1]; [4]
  Fold reduction of tobramycin MIC90: 10 fold
  mean FIC: 0.48
[2]
  FICI, single-point BisEDT-antibiotic combination: 0.57
[3]; MRSA 773
  FICI, single-point BisEDT-antibiotic combination: 0.78
[3]; SA 100
  FICI, single-point BisEDT-antibiotic combination: 0.73
